Measured values reported in ChEMBL document CHEMBL4219190, “Studies on synthesis of novel pyrido[2,3-d]pyrimidine derivatives, evaluation of their antimicrobial activity and molecular docking” (Bioorg Med Chem Lett, 2018).
≈ marks a conversion by molar mass, not a printed value. Calls of active or inactive are those of the source. The rule behind the calls is not given here.

How the values were obtained:
Staphylococcus aureus [1] = test: Antibacterial activity against Staphylococcus aureus MTCC 96 after 24 hrs by well diffusion method; format: functional; conditions: MTCC 96, 24 h
Candida albicans [2] = test: Antifungal activity against Candida albicans MTCC 3017 after 24 hrs by well diffusion method; format: functional; conditions: MTCC 3017, 24 h
Candida albicans [3] = test: Antifungal activity against Candida albicans MTCC 1637 after 24 hrs by well diffusion method; format: functional; conditions: MTCC 1637, 24 h
Candida albicans [4] = test: Fungicidal activity against Candida albicans MTCC 3018 incubated for 24 hrs followed by transfer of microbial suspension to Sabouraud dextrose agar plates and measured after 24 hrs post transfer; format: functional; conditions: MTCC 3018, 24 h
Staphylococcus aureus [5] = test: Bactericidal activity against Staphylococcus aureus MLS16 MTCC 2940 incubated for 24 hrs followed by transfer of microbial suspension to Mueller Hinton agar plates and measured after 24 hrs post transfer; format: functional; conditions: MLS16 MTCC 2940, 24 h
[Candida] aaseri [6] = Fungicidal activity against Candida aaseri MTCC 1962 incubated for 24 hrs followed by transfer of microbial suspension to Sabouraud dextrose agar plates and measured after 24 hrs post transfer; format: functional; conditions: Yamadazyma aaseri, MTCC 1962, 24 h
Candida albicans [7] = test: Antifungal activity against Candida albicans MTCC 183 after 24 hrs by well diffusion method; format: functional; conditions: MTCC 183, 24 h
Candida albicans [8] = test: Fungicidal activity against Candida albicans MTCC 3958 incubated for 24 hrs followed by transfer of microbial suspension to Sabouraud dextrose agar plates and measured after 24 hrs post transfer; format: functional; conditions: MTCC 3958, 24 h
Pichia kudriavzevii [9] = test: Antifungal activity against Candida krusei MTCC 3020 after 24 hrs by well diffusion method; format: functional
Staphylococcus aureus [10] = test: Antibacterial activity against Staphylococcus aureus MLS16 MTCC 2940 after 24 hrs by well diffusion method; format: functional; conditions: MLS16 MTCC 2940, 24 h
Staphylococcus aureus [11] = test: Bactericidal activity against Staphylococcus aureus MTCC 96 incubated for 24 hrs followed by transfer of microbial suspension to Mueller Hinton agar plates and measured after 24 hrs post transfer; format: functional; conditions: MTCC 96, 24 h
Escherichia coli [12] = test: Bactericidal activity against Escherichia coli MTCC 739 incubated for 24 hrs followed by transfer of microbial suspension to Mueller Hinton agar plates and measured after 24 hrs post transfer; format: functional; conditions: MTCC 739, 24 h
Nakaseomyces glabratus [13] = test: Antifungal activity against Candida glabrata MTCC 3019 after 24 hrs by well diffusion method; format: functional; conditions: MTCC 3019, 24 h
Candida albicans [14] = test: Antifungal activity against Candida albicans MTCC 4748 after 24 hrs by well diffusion method; format: functional; conditions: MTCC 4748, 24 h
Staphylococcus aureus [15] = test: Antibiofilm activity against Staphylococcus aureus MLS16 MTCC 2940 after 24 hrs by crystal violet staining-based assay; format: functional, organism-based; conditions: Staphylococcus aureus, MLS16 MTCC 2940, 24 h; read-out: IC50
Raoultella planticola [16] = test: Bactericidal activity against Klebsiella planticola MTCC 530 incubated for 24 hrs followed by transfer of microbial suspension to Mueller Hinton agar plates and measured after 24 hrs post transfer; format: functional; conditions: MTCC 530, 24 h
Escherichia coli [17] = test: Antibacterial activity against Escherichia coli MTCC 739 after 24 hrs by well diffusion method; format: functional; conditions: MTCC 739, 24 h
Staphylococcus aureus [18] = test: Antibiofilm activity against Staphylococcus aureus MTCC 96 after 24 hrs by crystal violet staining-based assay; format: functional, organism-based; conditions: Staphylococcus aureus, MTCC 96, 24 h; read-out: IC50
Raoultella planticola [19] = test: Antibacterial activity against Klebsiella planticola MTCC 530 after 24 hrs by well diffusion method; format: functional; conditions: MTCC 530, 24 h
Bacillus subtilis [20] = test: Antibiofilm activity against Bacillus subtilis MTCC 121 after 24 hrs by crystal violet staining-based assay; format: functional, organism-based; conditions: Bacillus subtilis, MTCC 121, 24 h; read-out: IC50
Candida albicans [21] = test: Fungicidal activity against Candida albicans MTCC 3017 incubated for 24 hrs followed by transfer of microbial suspension to Sabouraud dextrose agar plates and measured after 24 hrs post transfer; format: functional; conditions: MTCC 3017, 24 h
Candida albicans [22] = test: Antifungal activity against Candida albicans MTCC 227 after 24 hrs by well diffusion method; format: functional; conditions: MTCC 227, 24 h
Candida albicans [23] = test: Antifungal activity against Candida albicans MTCC 7315 after 24 hrs by well diffusion method; format: functional; conditions: MTCC 7315, 24 h
Pseudomonas aeruginosa [24] = test: Antibiofilm activity against Pseudomonas aeruginosa MTCC 2453 after 24 hrs by crystal violet staining-based assay; format: functional, organism-based; conditions: Pseudomonas aeruginosa, MTCC 2453, 24 h; read-out: IC50
Candida albicans [25] = test: Antifungal activity against Candida albicans MTCC 3958 after 24 hrs by well diffusion method; format: functional; conditions: MTCC 3958, 24 h
Candida parapsilosis [26] = test: Antifungal activity against Candida parapsilosis MTCC 1744 after 24 hrs by well diffusion method; format: functional; conditions: MTCC 1744, 24 h
Raoultella planticola [27] = test: Antibiofilm activity against Klebsiella planticola MTCC 530 after 24 hrs by crystal violet staining-based assay; format: functional, organism-based; conditions: Klebsiella planticola, MTCC 530, 24 h; read-out: IC50
Bacillus subtilis [28] = test: Antibacterial activity against Bacillus subtilis MTCC 121 after 24 hrs by well diffusion method; format: functional; conditions: MTCC 121, 24 h
Candida albicans [29] = test: Fungicidal activity against Candida albicans MTCC 227 incubated for 24 hrs followed by transfer of microbial suspension to Sabouraud dextrose agar plates and measured after 24 hrs post transfer; format: functional; conditions: MTCC 227, 24 h
Pseudomonas aeruginosa [30] = test: Antibacterial activity against Pseudomonas aeruginosa MTCC 2453 after 24 hrs by well diffusion method; format: functional; conditions: MTCC 2453, 24 h
Candida albicans [31] = test: Fungicidal activity against Candida albicans MTCC 7315 incubated for 24 hrs followed by transfer of microbial suspension to Sabouraud dextrose agar plates and measured after 24 hrs post transfer; format: functional; conditions: MTCC 7315, 24 h
Pichia sporocuriosa [32] = test: Antifungal activity against Issatchenkia hanoiensis MTCC 4755 after 24 hrs by well diffusion method; format: functional; conditions: MTCC 4755, 24 h
Candida albicans [33] = test: Fungicidal activity against Candida albicans MTCC 4748 incubated for 24 hrs followed by transfer of microbial suspension to Sabouraud dextrose agar plates and measured after 24 hrs post transfer; format: functional; conditions: MTCC 4748, 24 h
Candida parapsilosis [34] = test: Fungicidal activity against Candida parapsilosis MTCC 1744 incubated for 24 hrs followed by transfer of microbial suspension to Sabouraud dextrose agar plates and measured after 24 hrs post transfer; format: functional; conditions: Lodderomyces parapsilosis, MTCC 1744, 24 h
[Candida] aaseri [35] = Antifungal activity against Candida aaseri MTCC 1962 after 24 hrs by well diffusion method; format: functional; conditions: Yamadazyma aaseri, MTCC 1962, 24 h
Candida albicans [36] = test: Fungicidal activity against Candida albicans MTCC 1637 incubated for 24 hrs followed by transfer of microbial suspension to Sabouraud dextrose agar plates and measured after 24 hrs post transfer; format: functional; conditions: MTCC 1637, 24 h
Nakaseomyces glabratus [37] = test: Fungicidal activity against Candida glabrata MTCC 3019 incubated for 24 hrs followed by transfer of microbial suspension to Sabouraud dextrose agar plates and measured after 24 hrs post transfer; format: functional; conditions: MTCC 3019, 24 h
Candida albicans [38] = test: Antifungal activity against Candida albicans MTCC 3018 after 24 hrs by well diffusion method; format: functional; conditions: MTCC 3018, 24 h
Pichia kudriavzevii [39] = test: Fungicidal activity against Candida krusei MTCC 3020 incubated for 24 hrs followed by transfer of microbial suspension to Sabouraud dextrose agar plates and measured after 24 hrs post transfer; format: functional
Bacillus subtilis [40] = test: Bactericidal activity against Bacillus subtilis MTCC 121 incubated for 24 hrs followed by transfer of microbial suspension to Mueller Hinton agar plates and measured after 24 hrs post transfer; format: functional; conditions: MTCC 121, 24 h
Candida albicans [41] = test: Fungicidal activity against Candida albicans MTCC 183 incubated for 24 hrs followed by transfer of microbial suspension to Sabouraud dextrose agar plates and measured after 24 hrs post transfer; format: functional; conditions: MTCC 183, 24 h
Micrococcus luteus [42] = test: Antibacterial activity against Micrococcus luteus MTCC 2470 after 24 hrs by well diffusion method; format: functional; conditions: MTCC 2470, 24 h
Candida albicans [43] = test: Fungicidal activity against Candida albicans MTCC 854 incubated for 24 hrs followed by transfer of microbial suspension to Sabouraud dextrose agar plates and measured after 24 hrs post transfer; format: functional; conditions: MTCC 854, 24 h
Micrococcus luteus [44] = test: Bactericidal activity against Micrococcus luteus MTCC 2470 incubated for 24 hrs followed by transfer of microbial suspension to Mueller Hinton agar plates and measured after 24 hrs post transfer; format: functional; conditions: MTCC 2470, 24 h
Pseudomonas aeruginosa [45] = test: Bactericidal activity against Pseudomonas aeruginosa MTCC 2453 incubated for 24 hrs followed by transfer of microbial suspension to Mueller Hinton agar plates and measured after 24 hrs post transfer; format: functional; conditions: MTCC 2453, 24 h
Candida albicans [46] = test: Antifungal activity against Candida albicans MTCC 854 after 24 hrs by well diffusion method; format: functional; conditions: MTCC 854, 24 h
Pichia sporocuriosa [47] = test: Fungicidal activity against Issatchenkia hanoiensis MTCC 4755 incubated for 24 hrs followed by transfer of microbial suspension to Sabouraud dextrose agar plates and measured after 24 hrs post transfer; format: functional; conditions: MTCC 4755, 24 h

MIC (Staphylococcus aureus [1]): 7.8 µg/mL (≈ 15.4 µM) | MIC (Candida albicans [2]): 3.9 µg/mL (≈ 7.68 µM) | MIC (Candida albicans [3]): 15.6 µg/mL (≈ 30.7 µM) | MIC (Candida albicans [7]): 3.9 µg/mL (≈ 7.68 µM) | MIC (Pichia kudriavzevii [9]): inactive | MIC (Staphylococcus aureus [10]): 15.6 µg/mL (≈ 30.7 µM) | MIC (Nakaseomyces glabratus [13]): 7.8 µg/mL (≈ 15.4 µM) | MIC (Candida albicans [14]): 62.5 µg/mL (≈ 123 µM) | IC50 (Staphylococcus aureus [15]): 10.8 µg/mL (≈ 21.3 µM) | MIC (Escherichia coli [17]): 15.6 µg/mL (≈ 30.7 µM) | IC50 (Staphylococcus aureus [18]): 5.4 µg/mL (≈ 10.6 µM) | IC50 (Bacillus subtilis [20]): 2.7 µg/mL (≈ 5.32 µM) | MIC (Candida albicans [22]): 31.2 µg/mL (≈ 61.5 µM) | MIC (Candida albicans [23]): 31.2 µg/mL (≈ 61.5 µM) | IC50 (Pseudomonas aeruginosa [24]): 2.7 µg/mL (≈ 5.32 µM) | MIC (Candida albicans [25]): 62.5 µg/mL (≈ 123 µM) | MIC (Candida parapsilosis [26]): 15.6 µg/mL (≈ 30.7 µM) | MIC (Bacillus subtilis [28]): 7.8 µg/mL (≈ 15.4 µM) | MIC (Pseudomonas aeruginosa [30]): 7.8 µg/mL (≈ 15.4 µM) | MIC (Pichia sporocuriosa [32]): 7.8 µg/mL (≈ 15.4 µM) | MIC ([Candida] aaseri [35]): 15.6 µg/mL (≈ 30.7 µM) | MIC (Candida albicans [38]): 31.2 µg/mL (≈ 61.5 µM) | MIC (Micrococcus luteus [42]): 15.6 µg/mL (≈ 30.7 µM) | MIC (Candida albicans [46]): 15.6 µg/mL (≈ 30.7 µM)
SMILES: COc1ccc(-c2nc(C(=O)N3CCN(C)CC3)nc3nc(-c4ccccc4)cc(C(F)(F)F)c23)cc1
MFC (Candida albicans [4]): 62.5 µg/mL (≈ 123 µM) | MBC (Staphylococcus aureus [5]): 15.6 µg/mL (≈ 30.7 µM) | MFC ([Candida] aaseri [6]): 31.2 µg/mL (≈ 61.5 µM) | MFC (Candida albicans [8]): 62.5 µg/mL (≈ 123 µM) | MBC (Staphylococcus aureus [11]): 15.6 µg/mL (≈ 30.7 µM) | MBC (Escherichia coli [12]): 31.2 µg/mL (≈ 61.5 µM) | MBC (Raoultella planticola [16]): 31.2 µg/mL (≈ 61.5 µM) | MIC (Raoultella planticola [19]): 15.6 µg/mL (≈ 30.7 µM) | MFC (Candida albicans [21]): 7.8 µg/mL (≈ 15.4 µM) | IC50 (Raoultella planticola [27]): 10.8 µg/mL (≈ 21.3 µM) | MFC (Candida albicans [29]): 31.2 µg/mL (≈ 61.5 µM) | MFC (Candida albicans [31]): 62.5 µg/mL (≈ 123 µM) | MFC (Candida albicans [33]): 62.5 µg/mL (≈ 123 µM) | MFC (Candida parapsilosis [34]): 31.2 µg/mL (≈ 61.5 µM) | MFC (Candida albicans [36]): 31.2 µg/mL (≈ 61.5 µM) | MFC (Nakaseomyces glabratus [37]): 15.6 µg/mL (≈ 30.7 µM) | MFC (Pichia kudriavzevii [39]): inactive | MBC (Bacillus subtilis [40]): 15.6 µg/mL (≈ 30.7 µM) | MFC (Candida albicans [41]): 7.8 µg/mL (≈ 15.4 µM) | MFC (Candida albicans [43]): 31.2 µg/mL (≈ 61.5 µM) | MBC (Micrococcus luteus [44]): 31.2 µg/mL (≈ 61.5 µM) | MBC (Pseudomonas aeruginosa [45]): 15.6 µg/mL (≈ 30.7 µM) | MFC (Pichia sporocuriosa [47]): 15.6 µg/mL (≈ 30.7 µM)
